Where a name gives a salt, the structure may show the parent alone. Bounds are passed on as bounds.

The target in one series is CYP3A4 (Homo sapiens, UniProt P08684). In words: Cytochrome P450 (CYP450) Inhibition Assay, CYP3A4 (Vivid fluorescence, BOMCC substrate). To be noted: human, P450 Baculosomes (recombinant CYP3A4), probe BOMCC (Vivid substrate).
In another series the test system is sodium channel. In words: Guanidine influx assay (14C-guanidine radiotracer flux, in vitro). Format: cell-based, human or rat. The note with it: guanidine influx assay using a known cell line that expresses a sodium channel. In short, it runs like this: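 Aconitine holds channels open while 14C-guanidine enters human or rat sodium-channel-expressing cells in choline-substituted low-sodium saline, with test agent present at ambient temperature. Retained tracer is scintillation-counted and IC50 fitted by a four-parameter logistic model.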

CYP3A4, sequence (P08684 whole entry): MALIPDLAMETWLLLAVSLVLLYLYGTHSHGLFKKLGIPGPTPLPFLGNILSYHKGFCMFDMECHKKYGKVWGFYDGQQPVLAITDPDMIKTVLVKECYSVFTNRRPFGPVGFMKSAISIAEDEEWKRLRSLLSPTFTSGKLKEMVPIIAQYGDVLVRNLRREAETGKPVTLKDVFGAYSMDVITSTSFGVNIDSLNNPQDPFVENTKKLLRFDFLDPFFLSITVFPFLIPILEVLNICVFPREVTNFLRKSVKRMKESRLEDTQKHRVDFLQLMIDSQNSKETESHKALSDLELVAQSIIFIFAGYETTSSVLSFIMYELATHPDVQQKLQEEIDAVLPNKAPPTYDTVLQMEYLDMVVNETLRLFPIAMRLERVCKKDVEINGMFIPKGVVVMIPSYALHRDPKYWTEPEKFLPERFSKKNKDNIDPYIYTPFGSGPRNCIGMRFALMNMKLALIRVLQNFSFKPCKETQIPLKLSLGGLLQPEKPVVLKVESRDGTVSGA

One may read the inhibition as the change of the read-out against control, counted positive when it falls. As usually defined, the IC50 is the point on the concentration scale where inhibition reaches its midpoint. Turning to `CS(=O)(=O)Nc1cccnc1CN1C(=O)C2(COc3cc4c(cc32)OCCO4)c2ccccc21` (stereo not shown) [Example 11.98, N-{2-[(2′-oxo-2,3-dihydrospiro[furo[2,3-g][1,4]benzodioxine-8,3′-indol]-1′(2′H)-yl)methyl]pyridine-3-yl}methanesulfonamide], the inhibition at 10 µM at CYP3A4 was over 50%. Also, the IC50 in the series on sodium channel was in the range of 0.1 to 1 µM.
On to `O=C1N(CC2CCNCC2)c2ccccc2C12COc1cc3c(cc12)OCCO3` (stereo not shown) [Example 11.99, 1-(piperidin-4-ylmethyl)-2,3-dihydrospiro[furo[2,3-g][1,4]benzodioxine-8,3′-indol]-2′(1′H)-one hydrochloride], for which, on CYP3A4, the inhibition at 10 µM was under 50%. In the series on sodium channel, the IC50 is 1 to 10 µM.
The like results for `CN1CCC(CN2C(=O)C3(COc4cc5c(cc43)OCCO5)c3ccccc32)CC1` (stereo not shown) [Example 11.101, 1-[(1-methylpiperidin-4-yl)methyl]-2,3-dihydrospiro[furo[2,3-g][1,4]benzodioxine-8,3′-indol]-2′(1′H)-one hydrochloride] were, in that order, under 50% and 1 to 10 µM.
In the case of `CN1CCC(CN2C(=O)C3(COc4cc(F)c(F)cc43)c3ccccc32)CC1` (stereo not shown) [Example 11.112, 5,6-difluoro-1′-[(1-methylpiperidin-4-yl)methyl]spiro[1-benzofuran-3,3′-indol]-2′(1′H)-one hydrochloride], on CYP3A4, the inhibition at 10 µM was over 50%. The IC50 in the series on sodium channel was 0.001 to 0.1 µM.
On to `O=C(NCC1CCCCC1)c1cccc(CN2C(=O)C3(COc4cc5c(cc43)CCO5)c3ccccc32)c1` (stereo not shown) [Example 12, N-(cyclohexylmethyl)-3-[(2′-oxo-5,6-dihydrospiro[benzo[1,2-b:5,4-b′]difuran-3,3′-indol]-1′(2′H)-yl)methyl]benzamide], for which the inhibition at 10 µM at CYP3A4 is over 50%. In the series with sodium channel, the half-inhibitory concentration (IC50) was in the range of 0.1 to 1 µM.
For the compound `CC(CNC(=O)c1cccc(CN2C(=O)C3(COc4cc5c(cc43)CCO5)c3ccccc32)c1)c1ccccc1` (stereo not shown) [Example 12.5, 3-[(2′-oxo-5,6-dihydrospiro[benzo[1,2-b:5,4-b′]difuran-3,3′-indol]-1′(2′H)-yl)methyl]-N-(2-phenylpropyl)benzamide], the inhibition at 10 µM at CYP3A4 was over 50%. Further, the half-maximal inhibitory concentration (IC50) in the series with sodium channel was 0.1 to 1 µM.
With `C[C@H](NC(=O)c1cccc(CN2C(=O)C3(COc4cc5c(cc43)CCO5)c3ccccc32)c1)C1CCCCC1` (stereo partly drawn) [Example 12.6, N-[(1S)-1-cyclohexylethyl]-3-[(2′-oxo-5,6-dihydrospiro[benzo[1,2-b:5,4-b′]difuran-3,3′-indol]-1′(2′H)-yl)methyl]benzamide], the inhibition at 10 µM at CYP3A4 is over 50%. Besides, in the series with sodium channel, the 50% inhibitory concentration (IC50) fell in the range of 0.1 to 1 µM.
As for `C[C@@H](NC(=O)c1cccc(CN2C(=O)C3(COc4cc5c(cc43)CCO5)c3ccccc32)c1)C1CCCCC1` (stereo partly drawn) [Example 12.7, N-[(1R)-1-cyclohexylethyl]-3-[(2′-oxo-5,6-dihydrospiro[benzo[1,2-b:5,4-b′]difuran-3,3′-indol]-1′(2′H)-yl)methyl]benzamide], the inhibition at 10 µM on CYP3A4 is over 50%. Besides, in the series with sodium channel, the IC50 was 1 to 10 µM.
For the compound `COc1ccc(CCNC(=O)c2ccccc2CN2C(=O)C3(COc4cc5c(cc43)CCO5)c3ccccc32)cc1` (stereo not shown) [Example 12.22, N-[2-(4-methoxyphenyl)ethyl]-2-[(2′-oxo-5,6-dihydrospiro[benzo[1,2-b:5,4-b′]difuran-3,3′-indol]-1′(2′H)-yl)methyl]benzamide], the inhibition at 10 µM at CYP3A4 is over 50%. For the same compound, the 50% inhibitory concentration (IC50) in the series with sodium channel was in the range of 1 to 10 µM.
In the case of `O=C(NCc1cccc(Cl)c1)c1ccccc1CN1C(=O)C2(COc3cc4c(cc32)CCO4)c2ccccc21` (stereo not shown) [Example 12.23, N-(3-chlorobenzyl)-2-[(2′-oxo-5,6-dihydrospiro[benzo[1,2-b:5,4-b′]difuran-3,3′-indol]-1′(2′H)-yl)methyl]benzamide], the inhibition at 10 µM on CYP3A4 is over 50%. Further, the IC50 in the series on sodium channel was 1 to 10 µM.
As for `O=C(NCCc1ccc(Cl)cc1)c1ccccc1CN1C(=O)C2(COc3cc4c(cc32)CCO4)c2ccccc21` (stereo not shown) [Example 12.24, N-[2-(4-chlorophenyl)ethyl]-2-[(2′-oxo-5,6-dihydrospiro[benzo[1,2-b:5,4-b′]difuran-3,3′-indol]-1′(2′H)-yl)methyl]benzamide], the inhibition at 10 µM on CYP3A4 was over 50%. For the same compound, the half-maximal inhibitory concentration (IC50) in the series with sodium channel was 1 to 10 µM.
As for `COc1ccccc1NC(=O)c1ccc(CN2C(=O)C3(COc4cc5c(cc43)CCO5)c3ccccc32)cc1` (stereo not shown) [Example 12.25, N-(2-methoxyphenyl)-4-[(2′-oxo-5,6-dihydrospiro[benzo[1,2-b:5,4-b′]difuran-3,3′-indol]-1′(2′H)-yl)methyl]benzamide], on CYP3A4, the inhibition at 10 µM was under 50%. Besides, in the series on sodium channel, the IC50 was in the range of 1 to 10 µM.
`O=C(Nc1ccccc1C(F)(F)F)c1ccc(CN2C(=O)C3(COc4cc5c(cc43)CCO5)c3ccccc32)cc1` (stereo not shown) [Example 12.26, 4-[(2′-oxo-5,6-dihydrospiro[benzo[1,2-b:5,4-b′]difuran-3,3′-indol]-1′(2′H)-yl)methyl]-N-[2-(trifluoromethyl)phenyl]benzamide]: the inhibition at 10 µM on CYP3A4 was over 50%. Also, in the series with sodium channel, the IC50 lay within 1 to 10 µM.
Regarding `O=C(Nc1ccccc1)c1ccc(CN2C(=O)C3(COc4cc5c(cc43)CCO5)c3ccccc32)cc1` (stereo not shown) [Example 12.27, 4-[(2′-oxo-5,6-dihydrospiro[benzo[1,2-b:5,4-b′]difuran-3,3′-indol]-1′(2′H)-yl)methyl]-N-phenylbenzamide], the inhibition at 10 µM on CYP3A4 is under 50%. Further, the IC50 in the series on sodium channel was in the range of 0.1 to 1 µM.
As for `CNC(=O)c1ccc(CN2C(=O)C3(COc4cc5c(cc43)CCO5)c3ccccc32)cc1` (stereo not shown) [Example 12.28, N-methyl-4-[(2′-oxo-5,6-dihydrospiro[benzo[1,2-b:5,4-b′]difuran-3,3′-indol]-1′(2′H)-yl)methyl]benzamide], the inhibition at 10 µM on CYP3A4 is over 50%. In the series on sodium channel, the concentration for half-maximal inhibition (IC50) is 0.1 to 1 µM.
The like results for `O=C(Nc1ccccc1F)c1ccc(CN2C(=O)C3(COc4cc5c(cc43)CCO5)c3ccccc32)cc1` (stereo not shown) [Example 12.29, N-(2-fluorophenyl)-4-[(2′-oxo-5,6-dihydrospiro[benzo[1,2-b:5,4-b′]difuran-3,3′-indol]-1′(2′H)-yl)methyl]benzamide] were, in that order, under 50% and 0.1 to 1 µM.
With `O=C(NCCc1cccs1)c1ccc(CN2C(=O)C3(COc4cc5c(cc43)CCO5)c3ccccc32)cc1` (stereo not shown) [Example 12.30, 4-[(2′-oxo-5,6-dihydrospiro[benzo[1,2-b:5,4-b′]difuran-3,3′-indol]-1′(2′H)-yl)methyl]-N-(2-thiophen-2-ylethyl)benzamide], the inhibition at 10 µM on CYP3A4 is over 50%. The IC50 with sodium channel lay in the range of 0.1 to 1 µM.
As for `NC(=O)c1ccc(CN2C(=O)C3(COc4cc5c(cc43)CCO5)c3ccccc32)cc1` (stereo not shown) [Example 12.31, 4-[(2′-oxo-5,6-dihydrospiro[benzo[1,2-b:5,4-b′]difuran-3,3′-indol]-1′(2′H)-yl)methyl]benzamide], the inhibition at 10 µM at CYP3A4 was over 50%. Besides, in the series with sodium channel, the half-inhibitory concentration (IC50) lay in the range of 0.001 to 0.1 µM.
As to `O=C(Nc1ccc2c(c1)CCC2)c1ccc(CN2C(=O)C3(COc4cc5c(cc43)CCO5)c3ccccc32)cc1` (stereo not shown) [Example 12.32, N-(2,3-dihydro-1H-inden-5-yl)-4-[(2′-oxo-5,6-dihydrospiro[benzo[1,2-b:5,4-b′]difuran-3,3′-indol]-1′(2′H)-yl)methyl]benzamide], at CYP3A4, the inhibition at 10 µM is under 50%. Moreover, in the series on sodium channel, the IC50 lay in the range of 1 to 10 µM.
The like results for `O=C(c1ccc(CN2C(=O)C3(COc4cc5c(cc43)CCO5)c3ccccc32)cc1)N1CCOCC1` (stereo not shown) [Example 12.33, 1′-[4-(morpholin-4-ylcarbonyl)benzyl]-5,6-dihydrospiro[benzo[1,2-b:5,4-b′]difuran-3,3′-indol]-2′(1′H)-one] were, in that order, over 50% and 1 to 10 µM.
As to `NC(=O)CN1C(=O)C2(COc3cc4c(cc32)CCO4)c2ccccc21` (stereo not shown) [Example 12.46, 2-(2′-oxo-5,6-dihydrospiro[benzo[1,2-b:5,4-b′]difuran-3,3′-indol]-1′(2′H)-yl)acetamide], the inhibition at 10 µM on CYP3A4 is under 50%. Besides, the 50% inhibitory concentration (IC50) with sodium channel lay in the range of 1 to 10 µM.
`CCc1ccc(NC(=O)CN2C(=O)C3(COc4cc5c(cc43)CCO5)c3ccccc32)cc1` (stereo not shown) [Example 12.47, N-(4-ethylphenyl)-2-(2′-oxo-5,6-dihydrospiro[benzo[1,2-b:5,4-b′]difuran-3,3′-indol]-1′(2′H)-yl)acetamide]: on CYP3A4, the inhibition at 10 µM was under 50%. Also, in the series on sodium channel, the IC50 was 1 to 10 µM.
Consider `CCN(CC)C(=O)CN1C(=O)C2(COc3cc4c(cc32)CCO4)c2ccccc21` (stereo not shown) [Example 12.48, N,N-diethyl-2-(2′-oxo-5,6-dihydrospiro[benzo[1,2-b:5,4-b′]difuran-3,3′-indol]-1′(2′H)-yl)acetamide], for which the inhibition at 10 µM at CYP3A4 is under 50%. Besides, the half-inhibitory concentration (IC50) in the series with sodium channel was 0.1 to 1 µM.
Consider `CNC(=O)c1cccnc1CN1C(=O)C2(COc3cc4c(cc32)OCCO4)c2ccccc21` (stereo not shown) [Example 12.63, N-methyl-2-[(2′-oxo-2,3-dihydrospiro[furo[2,3-g][1,4]benzodioxine-8,3′-indol]-1′(2′H)-yl)methyl]pyridine-3-carboxamide], for which the inhibition at 10 µM on CYP3A4 is under 50%. Also, in the series with sodium channel, the IC50 lay within 1 to 10 µM.
For the compound `NCCNC(=O)c1cccnc1CN1C(=O)C2(COc3cc4c(cc32)OCCO4)c2ccccc21` (stereo not shown) [Example 12.64, N-(2-aminoethyl)-2-[(2′-oxo-2,3-dihydrospiro[furo[2,3-g][1,4]benzodioxine-8,3′-indol]-1′(2′H)-yl)methyl]pyridine-3-carboxamide dihydrochloride], on CYP3A4, the inhibition at 10 µM was over 50%. The concentration for half-maximal inhibition (IC50) in the series on sodium channel lay in the range of 0.1 to 1 µM.
On to `O=C(O)c1ccc(CN2C(=O)C3(COc4cc5c(cc43)CCO5)c3ccccc32)o1` (stereo not shown) [Example 13, 5-[(2′-oxo-5,6-dihydrospiro[benzo[1,2-b:5,4-b′]difuran-3,3′-indol]-1′(2′H)-yl)methyl]furan-2-carboxylic acid], for which the inhibition at 10 µM on CYP3A4 is under 50%. The half-maximal inhibitory concentration (IC50) with sodium channel is 1 to 10 µM.
